Measured values as given in patent US20180243421A1, “IMMUNOSTIMULATING AGENT” (AJINOMOTO CO., INC., priority 2015, published 2018).

Tests used:
[1] = system: anti-OVA-specific IgG1 subclass antibody; test: Adjuvant activity: anti-OVA-specific IgG1 subclass antibody in serum after secondary immunization (Examples 12, 19, 20, 21); format: in vivo, BALB/c mice; details: two weeks from secondary immunization
Description: 8-Week-old female BALB/c mice were divided into groups (N=6), and each group was primarily immunized by dorsal-subcutaneous administration of (1) ovalbumin (OVA) (5 μg) dissolved in saline as an antigen (OVA single administration group), (2) OVA (5 μg) added to 5% αCD-added saline, (3) OVA (5 μg) added to 10% HP-β-CD-added saline, (4) OVA (5 μg) and SZ62 (0.256 μmol) dissolved or dispersed in 5% αCD-added saline, and (5) OVA (5 μg) and SZ62 (0.256 μmol) dissolved in 10% HP-β-CD-added saline, each per mouse. One week later, the secondary immunization was carried out by dorsal-subcutaneous administration of solutions or dispersions similar to those of the above-mentioned (1) to (5) again. Two weeks from the secondary immunization, the blood was extracted under anesthesia, and the obtained serum samples were measured for anti-OVA-specific IgG1 subclass antibody.
(§1) Measurement Method of Concentration of anti-OVA-specific IgG1 Subclass Antibody and anti-OVA-specific IgG2a Subclass Antibody
(§2) To a 96 well plate was added 5 μg/ml OVA at 100 μl/well, and the mixture was incubated at 4° C. overnight. After incubation, the mixture was washed three times with 200 μl of PBS-T (PBS+0.05% (v/v) Tween 20) per well, and blocked with 100 μl of 5% FCS/PBS solution per well at room temperature for 1 to for 2 hr. Thereafter, the mixture was washed three times with PBS-T (200 μl/well), a diluted serum sample (100 μl/well) or the same amount of 5% FCS/PBS solution as a control was added, to and the mixture was incubated at 37° C. for 1 hr. To calculate concentration of the antibody, the standard of an anti-OVA-specific IgG1 subclass antibody diluted with 2% FCS/PBS solution was added at 100 ng/ml, 50 ng/ml, 25 ng/ml, 12.5 ng/ml, 6.25 ng/ml, 3.125 ng/ml, 1.56 ng/ml, 0.781 ng/ml, 0.391 ng/ml, 0.195 ng/ml, 0.098 ng/ml, 0 ng/ml, per 1 well. When an anti-OVA-specific IgG2a subclass antibody was measured, the standard of an anti-OVA-specific IgG2a subclass antibody was added at 50 ng/ml, 25 ng/ml, 12,5 ng/ml, 6.25 ng/ml, 3.125 ng/ml, 1.56 ng/ml, 0.781 ng/ml, 0.391 ng/ml, 0.195 ng/ml, 0.098 ng/ml, 0.049 ng/ml, 0 ng/ml, per 1 well. […] Thereafter, the mixture was washed five times with PBS-T (200 μl/well), a diluted anti-biotin-HRP antibody was added (100 μl/well), and the mixture was incubated at 37° C. for another 30 min. Thereafter, the mixture was washed five times with PBS-T (200 μl/well), TMB substrate solution was added (100 μl/well), and the mixture was incubated at room temperature for 10- for 15 min. Thereafter, a reaction quenching liquid (2N sulfuric acid solution) was added (50 μl/well) to discontinue a color developing reaction, and the absorbance (OD Value=450 nm) was measured by a microplate reader. A standard curve was drawn from the measured OD values, and the concentration was calculated.
8-Week-old female BALB/c mice were divided into groups (N=6), and each group was primarily immunized by dorsal-subcutaneous administration of (1) ovalbumin (OVA) (5 μg) dissolved in saline as an antigen (OVA single administration group), (2) OVA 10 μg and Addavax™ (mixed with saline at 1:1) dissolved in saline (Addavax™ administration group), (3) OVA (5 μg) and SZ86 (0.256 μmol) dissolved or dispersed in 5% αCD-added saline (SZ86 administration group), (4) OVA (5 μg) and SZ90 (0.256 μmol) dissolved or dispersed in 5% αCD-added saline (SZ90 administration group), (5) OVA (5 μg) and SZ92 (0.256 μmol) dissolved or dispersed in 5% αCD-added saline (SZ92 administration group), (6) OVA (5 μg) and SZ99 (0.256 μmol) dissolved or dispersed in 5% αCD-added saline (SZ99 administration group), (7) OVA (5 μg) and SZ106 (0.256 μmol) dissolved or dispersed in 5% αCD-added saline (SZ106 administration group), each per mouse. One week later, the secondary immunization was carried out by dorsal-subcutaneous administration of solutions or dispersions similar to those of the above-mentioned (1)-(7) again.

[2] = system: anti-OVA-specific IgG1 subclass antibody; test: Adjuvant activity after primary immunization: anti-OVA-specific IgG1 subclass antibody in serum (Examples 13-18); format: in vivo, BALB/c mice; details: OVA 5 μg + 0.256 μmol in 5% αCD saline s.c., serum after 12 days
Description: 8-Week-old female BALB/c mice were divided into groups (N=6), and each group was primarily immunized by dorsal-subcutaneous administration of (1) ovalbumin (OVA) (5 μg) dissolved in saline as an antigen (OVA single administration group), (2) OVA (5 μg) and SZ83 (0.256 μmol) dissolved or dispersed in 5% αCD-added saline (SZ83 administration group), (3) OVA (5 μg) and SZ84 (0.256 μmol) dissolved or dispersed in 5% αCD-added saline (SZ84 administration group), (4) OVA (5 μg) and SZ86 (0.256 μmol) dissolved or dispersed in 5% αCD-added saline (SZ86 administration group), (5) OVA (5 μg) and SZ89 (0.256 μmol) dissolved or dispersed in 5% αCD-added saline (SZ89 administration group), (6) OVA (5 μg) and SZ90 (0.256 μmol) dissolved or dispersed in 5% αCD-added saline (SZ90 administration group), each per mouse. After 12 days, blood samples were collected under anesthesia, and the obtained serum samples were subjected to the measurement of an anti-OVA-specific IgG1 subclass antibody.
as §1, §2
8-Week-old female BALB/c mice were divided into groups (N=6), and each group was primarily immunized by dorsal-subcutaneous administration of (1) ovalbumin (OVA) (5 μg) dissolved in saline as an antigen (OVA single administration group), (2) OVA (5 μg) and SZ92 (0.256 μmol) dissolved or dispersed in 5% αCD-added saline (SZ92 administration group), (3) OVA (5 μg) and SZ94 (0.256 μmol) dissolved or dispersed in 5% αCD-added saline (SZ94 administration group), (4) OVA (5 μg) and SZ95 (0.256 μmol) dissolved or dispersed in 5% αCD-added saline (SZ95 administration group), (5) OVA (5 μg) and SZ96 (0.256 μmol) dissolved or dispersed in 5% αCD-added saline (SZ96 administration group), each per mouse. After 12 days, blood samples were collected under anesthesia, and the obtained serum samples were subjected to the measurement of anti-OVA-specific IgG1 subclass antibody.

[3] = Example 19, OVA 5 μg + 0.256 μmol in 5% αCD saline s.c. (Addavax 1:1 with OVA 10 μg)
[4] = Example 20, OVA 5 μg + 0.256 μmol in 5% αCD saline s.c. (Addavax 1:1 with OVA 10 μg)

CCCCCCCCCCCCCCCC(=O)NC(=N)NCCCCN [SZ62, N-hexadecanoylagmatine]
anti-OVA-specific IgG1 subclass antibody production as compared to the OVA single administration group ([1]; Example 12, SZ62 0.256 μmol dispersed in 5% αCD-added saline, OVA 5 μg s.c.): significantly increased | anti-OVA-specific IgG1 subclass antibody production as compared to the OVA single administration group ([1]; Example 12, SZ62 0.256 μmol dissolved in 10% HP-β-CD-added saline, OVA 5 μg s.c.): significantly increased

CCCCCCCCCCCCCCCCCCC(CCCCCCCCCCCCCCCCCC)C(=O)N[C@@H](CC(C)C)C(=O)OC [SZ86, N-(2-octadecyleicosanoyl)-L-leucine methyl ester]
anti-OVA-specific IgG1 subclass antibody production as compared to the OVA single administration group [1, 3]: tended to increase | anti-OVA-specific IgG1 subclass antibody production as compared to the OVA single administration group [1, 4]: tended to increase | anti-OVA-specific IgG1 subclass antibody production after primary immunization ([2]; Example 13): show a tendency to increase

CCCCCCCCCCCCCCCC(=O)N[C@@H](CC(C)C)C(=O)N(CC)CC [SZ92, N^2-hexadecanoyl-N^1,N^1-diethyl-L-leucinamide]
anti-OVA-specific IgG1 subclass antibody production as compared to the OVA single administration group [1, 3]: significantly increased | anti-OVA-specific IgG1 subclass antibody production as compared to the OVA single administration group [1, 4]: significantly increased | anti-OVA-specific IgG1 subclass antibody production after primary immunization as compared to the OVA single administration group ([2]; Example 14): significantly increased

CCCCCCCCCCCCCCCC(=O)N[C@@H](CC(C)C)C(=O)OCCCCCC [SZ97, N-hexadecanoyl-L-leucine hexyl ester]
anti-OVA-specific IgG1 subclass antibody production as compared to the OVA single administration group [1, 4]: significantly increased | anti-OVA-specific IgG1 subclass antibody production after primary immunization as compared to the OVA single administration group ([2]; Example 15): show a tendency to increase

CCCCCCCCCCCCCCCC(=O)N[C@@H](CCCNC(=N)N)C(=O)OCCCCCC.Cl [SZ99, N^2-hexadecanoyl-L-arginine hexyl ester hydrochloride salt]
anti-OVA-specific IgG1 subclass antibody production as compared to the OVA single administration group [1, 3]: tended to increase | anti-OVA-specific IgG1 subclass antibody production after primary immunization as compared to the OVA single administration group ([2]; Example 15): significantly increased

CCCCCCCCCCCCCCCCCCCCCC(=O)N[C@@H](CCC(=O)O)C(=O)N(CC)CC [SZ106, N^2-docosanoyl-N^1,N^1-diethyl-L-glutamic acid 1-amide]
anti-OVA-specific IgG1 subclass antibody production as compared to the OVA single administration group [1, 3]: tended to increase | anti-OVA-specific IgG1 subclass antibody production as compared to the OVA single administration group [1, 4]: tended to increase | anti-OVA-specific IgG1 subclass antibody production after primary immunization as compared to the OVA single administration group ([2]; Example 15): show a tendency to increase

CCCCCCCCCCCCCCCCCCCCCC(=O)NC(=N)NCCCCN.Cl [SZ108, N-docosanoylagmatine hydrochloride salt]
anti-OVA-specific IgG1 subclass antibody production as compared to the OVA single administration group [1, 4]: tended to increase | anti-OVA-specific IgG1 subclass antibody production after primary immunization as compared to the OVA single administration group ([2]; Example 16): significantly increased
